According to publication PMC10921007 (Cancer Science, 2023):

Molecular target: T1, SHCBP1 (Homo sapiens, UniProt Q8NEM2)
T1 sequence (Q8NEM2 2-672): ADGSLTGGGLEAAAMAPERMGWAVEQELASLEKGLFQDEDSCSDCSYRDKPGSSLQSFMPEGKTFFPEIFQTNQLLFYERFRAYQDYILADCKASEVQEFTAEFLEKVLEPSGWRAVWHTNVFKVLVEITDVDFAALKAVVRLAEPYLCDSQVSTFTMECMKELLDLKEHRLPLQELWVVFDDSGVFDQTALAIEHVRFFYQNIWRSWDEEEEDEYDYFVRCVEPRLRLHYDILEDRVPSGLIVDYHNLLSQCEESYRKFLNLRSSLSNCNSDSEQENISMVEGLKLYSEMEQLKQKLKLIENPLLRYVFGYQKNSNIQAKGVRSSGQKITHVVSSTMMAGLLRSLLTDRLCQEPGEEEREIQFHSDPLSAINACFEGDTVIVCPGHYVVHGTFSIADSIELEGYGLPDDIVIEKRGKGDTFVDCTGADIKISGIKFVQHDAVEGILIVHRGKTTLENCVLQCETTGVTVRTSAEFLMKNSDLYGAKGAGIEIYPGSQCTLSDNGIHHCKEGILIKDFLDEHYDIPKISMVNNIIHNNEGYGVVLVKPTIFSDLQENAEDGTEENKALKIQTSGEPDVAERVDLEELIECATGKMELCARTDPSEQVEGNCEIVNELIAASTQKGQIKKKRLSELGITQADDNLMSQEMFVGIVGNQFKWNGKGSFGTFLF
Test: microscale thermophoresis
Type: binding

- Kd: 1210 nM
Structure (SMILES): CN[C@@H](C)C(=O)N[C@H](C(=O)N1CCC[C@H]1C(=O)N[C@H]1c2ccccc2C[C@H]1OCC#CC#CCO[C@@H]1Cc2ccccc2[C@@H]1NC(=O)[C@@H]1CCCN1C(=O)[C@@H](NC(=O)[C@H](C)NC)C1CCCCC1)C1CCCCC1 [AZD5582]
